Counter-ions that a name gives are not always drawn. Like-named read-outs stand apart in the source and are kept apart here.
Test system: reserpine-induced hypothermia
Experiment: inhibition of reserpine-induced hypothermia in mice (antidepressant action)
Type: in vivo, mice (Swiss strain)
Conditions: for ED50: Mus musculus; for ED50 / ED50 (antidepressant action, dose which inhibits the reserpine-induced hypothermia by 50%): body temperature two hours after reserpine
Procedure: The antidepressant action of the substances according to the invention was investigated using the following model:
2.15 mg/kg of reserpine administered subcutaneously to male mice (Swiss strain) weighing 20-26 g lowers the body temperature by an average of 3° C., measured two hours after administration of the reserpine and at an ambient temperature of 20°-22° C. Antidepressants inhibit this hypothermia, the inhibition being dose-dependent. The test substances are administered orally, 60 minutes before the administration of reserpine.
The dose which inhibits the reserpine-induced hypothermia by 50%, ie. the ED50, is determined from the linear regression between log dose (mg/kg) and relative decrease in hypothermia.
In some cases, the activity is substantially greater than that of imipramine (for Example 18c, by a factor of 72).

[1] = male mice (Swiss strain), oral, 60 minutes before 2.15 mg/kg reserpine s.c., read-out: ED50 (antidepressant action, dose which inhibits the reserpine-induced hypothermia by 50%)
[2] = male mice (Swiss strain), oral, 60 minutes before 2.15 mg/kg reserpine s.c.
[3] = po, read-out: ED50 (antidepressant action, dose which inhibits the reserpine-induced hypothermia by 50%), male mice (Swiss strain), oral, 60 minutes before 2.15 mg/kg reserpine s.c.

SMILES | ED50 [1] [mg/kg] | further results
CN(C)CCC1(c2ccc(Cl)cc2)CCc2ccccc2C1=O (centres unmarked) [Example 3, 1-oxo-2-(4-chlorophenyl)-2-(2-dimethylaminoethyl)-1,2,3,4-tetrahydronaphthalene] | 4.6 | –
CN(C)CCC1(c2ccc(F)cc2)CCc2ccccc2C1=O.Cl (centres unmarked) [Example 5, 1-oxo-2-(4-fluorophenyl)-2-(2-dimethylaminoethyl)-1,2,3,4-tetrahydronaphthalene hydrochloride] | 4.9 | –
CN(C)CCC1(c2ccccc2)CCc2c(Cl)cccc2C1=O (centres unmarked) [Example 12, 1-oxo-5-chloro-2-phenyl-2-(2-dimethylaminoethyl)-1,2,3,4-tetrahydronaphthalene] | 0.9 | –
CN(C)CCC1(c2ccccc2)CCc2ccccc2C1=O (racemic) [Example 18c, 1-oxo-2-phenyl-2-(2-dimethylaminoethyl)-1,2,3,4-tetrahydronaphthalene] | – | ED50 (antidepressant action, dose which inhibits the reserpine-induced hypothermia by 50%) [2]: 0.09 mg/kg; activity greater than that of imipramine, by a factor of (ratio of ED50 to imipramine, oral, mice): 72
CN(C)CCC1(c2cccc(Cl)c2)CCc2ccccc2C1=O.Cl (centres unmarked) [Example 8, 1-oxo-2-(3-chlorophenyl)-2-(2-dimethylaminoethyl)-1,2,3,4-tetrahydronaphthalene hydrochloride] | 5.2 | –
CN(C)CCC1(c2ccccc2)CCc2ccccc2C1=O (racemic) [Example 18a, 1-oxo-2-phenyl-2-(2-dimethylaminoethyl)-1,2,3,4-tetrahydronaphthalene] | – | ED50 (antidepressant action, dose which inhibits the reserpine-induced hypothermia by 50%) [2]: 0.85 mg/kg
Cc1cccc(C2(CCN(C)C)CCc3ccccc3C2=O)c1 (centres unmarked) [Example 2, 1-oxo-2-(3-tolyl)-2-(2-dimethylaminoethyl)-1,2,3,4-tetrahydronaphthalenehydrochloride] | 6.8 | –
CN(C)CCCN1c2ccccc2CCc2ccccc21 [imipramine, reference compound] | – | ED50 [3]: 6.8 mg/kg
CN(C)CCC1(c2ccccc2)CCc2ccccc2C1=O (centres unmarked) [Example 1, 1-oxo-2-phenyl-2-(2-dimethylaminoethyl)-1,2,3,4-tetrahydronaphthalene] | – | ED50 [3]: 0.14 mg/kg
COc1cccc(C2(CCN(C)C)CCc3ccccc3C2=O)c1.O=C(O)C(=O)O (centres unmarked) [Example 14, 1-oxo-2-(3-methoxyphenyl)-2-(2-dimethylaminoethyl)-1,2,3,4-tetrahydronaphthalene hydrogen oxalate] | 2.3 | –

From patent US4564641A, “Substituted 1-oxo-2-phenyl-2-(2-alkylaminoethyl)-1,2,3,4-tetrahydronaphthalenes, their preparation and their use” (BASF Aktiengesellschaft, priority 1982, dated 1986)
